“And” between values parts separate entries of the source, which are not always exact repeats. Identical values can stand only once. The source made the active and inactive calls. No cut-off for these calls is given here. Bounds are passed on as bounds.

The target in series [1] is Rod cGMP-specific 3',5'-cyclic phosphodiesterase subunit alpha (Homo sapiens, UniProt P16499). Kind of series: Inhibition of PDE6.
The nature of series [2]: Half life in rat. It is filed as ADME, organism-based. Particulars: in vivo.
For series [3], the target named is cGMP-specific 3',5'-cyclic phosphodiesterase (Homo sapiens, UniProt O76074). Kind of series: Inhibition of PDE5.
For series [4], the system named is Rattus norvegicus. Kind of series: Antihypertensive activity against telemeterized rat at 10 mg/kg, po. It is filed as functional, organism-based. On the set-up: dose 10 mg/kg.
A short description of series [5]: Selectivity ratio of IC50 for PDE5 to IC50 for PDE6.
The nature of series [6]: Clearance in rat. It counts as ADME, organism-based. Particulars: in vivo.
In series [7] the target is Dual 3',5'-cyclic-AMP and -GMP phosphodiesterase 11A (Homo sapiens, UniProt Q9HCR9). Kind of series: Inhibition of PDE11.
Series [8] concerns the target Dual specificity calcium/calmodulin-dependent 3',5'-cyclic nucleotide phosphodiesterase 1A (Homo sapiens, UniProt P54750). In words: Inhibition of PDE1A.
For series [9], the target named is Dual specificity calcium/calmodulin-dependent 3',5'-cyclic nucleotide phosphodiesterase 1B (Homo sapiens, UniProt Q01064). In words: Inhibition of PDE1B.
Series [10] concerns the target Dual specificity calcium/calmodulin-dependent 3',5'-cyclic nucleotide phosphodiesterase 1C (Homo sapiens, UniProt Q14123). Kind of series: Inhibition of PDE1C.
The target of series [11] is cGMP-dependent 3',5'-cyclic phosphodiesterase (Homo sapiens, UniProt O00408). In words: Inhibition of PDE2.
Series [12] has as its target cGMP-inhibited 3',5'-cyclic phosphodiesterase 3A (Homo sapiens, UniProt Q14432). Kind of series: Inhibition of PDE3A.
Series [13] has as its target cGMP-inhibited 3',5'-cyclic phosphodiesterase 3B (Homo sapiens, UniProt Q13370). Kind of series: Inhibition of PDE3B.
Series [14] concerns the target 3',5'-cyclic-AMP phosphodiesterase 4A (Homo sapiens, UniProt P27815). In words: Inhibition of PDE4A.
Series [15] addresses 3',5'-cyclic-AMP phosphodiesterase 4B (Homo sapiens, UniProt Q07343). Kind of series: Inhibition of PDE4B.
Series [16] concerns the target 3',5'-cyclic-AMP phosphodiesterase 4C (Homo sapiens, UniProt Q08493). Kind of series: Inhibition of PDE4C.
Series [17] concerns the target High affinity 3',5'-cyclic-AMP phosphodiesterase 7A (Homo sapiens, UniProt Q13946). Kind of series: Inhibition of PDE7A.
The target of series [18] is 3',5'-cyclic-AMP phosphodiesterase 7B (Homo sapiens, UniProt Q9NP56). Kind of series: Inhibition of PDE7B.
The target of series [19] is High affinity cAMP-specific and IBMX-insensitive 3',5'-cyclic phosphodiesterase 8A (Homo sapiens, UniProt O60658). Kind of series: Inhibition of PDE8A.
For series [20], the target named is High affinity cAMP-specific and IBMX-insensitive 3',5'-cyclic phosphodiesterase 8B (Homo sapiens, UniProt O95263). Kind of series: Inhibition of PDE8B.
Series [21] addresses High affinity cGMP-specific 3',5'-cyclic phosphodiesterase 9A (Homo sapiens, UniProt O76083). In words: Inhibition of PDE9.
A short description of series [22]: Clearance in rat at 2 mg/kg, po and 2 mg/kg, iv. It counts as ADME, organism-based. Particulars: in vivo.
Series [23] in a line: Oral bioavailability in rat at 2 mg/kg. It counts as ADME, organism-based. The settings on record: in vivo.
Series [24] is described as follows: Volume of distribution in rat at 2 mg/kg, iv and 2 mg/kg, po. It counts as ADME, organism-based. Particulars: in vivo.
Series [25] in a line: Volume of distribution in dog at 2 mg/kg, iv and 2 mg/kg, po. Particulars: in vivo. It is filed as ADME, organism-based, Canis lupus familiaris.
The nature of series [26]: Clearance in dog at 2 mg/kg, po and 2 mg/kg, iv. It counts as ADME, organism-based, Canis lupus familiaris. Particulars: in vivo.
Series [27] in a line: Half life in rat at 2 mg/kg, po and 2 mg/kg, iv. Particulars: in vivo. It counts as ADME, organism-based.
Series [28] can be described thus: Half life in dog at 2 mg/kg, po and 2 mg/kg, iv. It is filed as ADME, organism-based, Canis lupus familiaris. The settings on record: in vivo.
Series [29] in a line: Oral bioavailability in dog at 2 mg/kg. The settings on record: in vivo. It is filed as ADME, organism-based, Canis lupus familiaris.
The species entered for series [30] is Rattus norvegicus. Kind of series: Unbound volume of distribution in rat. Particulars: in vivo. It is filed as ADME, organism-based.
The species named for series [31] is Rattus norvegicus. Kind of series: Unbound clearance in rat. It counts as ADME, organism-based. Particulars: in vivo.
Series [32] can be described thus: Permeability from apical to basolateral side in human Caco-2 cells. It counts as ADME, cell-based. The settings on record: read-out: permeability. For orientation: Passage across Caco-2 layers is used to estimate intestinal permeability.
Series [33] addresses 3',5'-cyclic-AMP phosphodiesterase 4D (Homo sapiens, UniProt Q08499).

Chain of 3',5'-cyclic-AMP phosphodiesterase 4B (Q07343 whole entry): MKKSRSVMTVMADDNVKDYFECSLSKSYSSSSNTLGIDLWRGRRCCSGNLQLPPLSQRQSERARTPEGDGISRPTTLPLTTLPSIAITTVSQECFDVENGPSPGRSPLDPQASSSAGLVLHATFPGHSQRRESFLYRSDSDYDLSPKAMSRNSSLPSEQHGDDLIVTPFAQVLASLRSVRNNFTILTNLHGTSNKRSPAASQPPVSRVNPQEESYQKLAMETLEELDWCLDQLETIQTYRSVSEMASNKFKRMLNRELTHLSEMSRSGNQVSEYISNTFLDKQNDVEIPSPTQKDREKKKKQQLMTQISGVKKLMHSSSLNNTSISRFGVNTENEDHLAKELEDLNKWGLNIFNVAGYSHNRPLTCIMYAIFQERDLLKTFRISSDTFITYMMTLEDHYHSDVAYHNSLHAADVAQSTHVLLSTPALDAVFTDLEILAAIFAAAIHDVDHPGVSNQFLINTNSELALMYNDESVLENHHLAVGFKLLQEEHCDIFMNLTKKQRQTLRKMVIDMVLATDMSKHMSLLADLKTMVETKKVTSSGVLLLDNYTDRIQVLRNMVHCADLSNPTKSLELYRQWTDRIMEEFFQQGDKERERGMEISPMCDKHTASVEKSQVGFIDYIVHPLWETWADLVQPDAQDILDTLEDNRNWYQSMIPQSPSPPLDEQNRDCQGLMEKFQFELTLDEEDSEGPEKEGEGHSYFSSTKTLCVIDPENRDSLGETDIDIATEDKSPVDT
Chain of Rod cGMP-specific 3',5'-cyclic phosphodiesterase subunit alpha (P16499 whole entry): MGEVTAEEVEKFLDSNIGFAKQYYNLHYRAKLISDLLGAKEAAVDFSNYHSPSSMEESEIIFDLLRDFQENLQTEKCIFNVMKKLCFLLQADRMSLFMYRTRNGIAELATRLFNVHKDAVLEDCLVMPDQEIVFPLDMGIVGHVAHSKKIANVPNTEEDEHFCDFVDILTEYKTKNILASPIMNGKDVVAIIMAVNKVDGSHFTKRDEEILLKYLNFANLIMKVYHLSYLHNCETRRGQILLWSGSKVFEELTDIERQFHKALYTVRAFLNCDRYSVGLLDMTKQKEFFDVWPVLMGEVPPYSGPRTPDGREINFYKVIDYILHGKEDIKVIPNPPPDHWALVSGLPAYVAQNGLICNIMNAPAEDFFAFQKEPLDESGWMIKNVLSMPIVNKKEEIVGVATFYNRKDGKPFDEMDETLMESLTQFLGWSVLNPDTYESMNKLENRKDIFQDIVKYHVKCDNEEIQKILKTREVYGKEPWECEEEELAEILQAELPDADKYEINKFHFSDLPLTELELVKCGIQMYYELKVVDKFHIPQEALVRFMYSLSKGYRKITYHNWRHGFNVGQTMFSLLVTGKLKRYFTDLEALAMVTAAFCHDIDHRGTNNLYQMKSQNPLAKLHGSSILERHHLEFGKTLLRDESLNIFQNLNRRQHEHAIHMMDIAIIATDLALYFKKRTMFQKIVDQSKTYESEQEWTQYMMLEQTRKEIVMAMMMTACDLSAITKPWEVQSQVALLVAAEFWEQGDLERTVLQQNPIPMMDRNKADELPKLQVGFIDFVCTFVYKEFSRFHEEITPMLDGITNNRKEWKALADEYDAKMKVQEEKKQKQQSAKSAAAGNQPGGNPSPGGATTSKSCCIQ
Chain of 3',5'-cyclic-AMP phosphodiesterase 7B (Q9NP56 whole entry): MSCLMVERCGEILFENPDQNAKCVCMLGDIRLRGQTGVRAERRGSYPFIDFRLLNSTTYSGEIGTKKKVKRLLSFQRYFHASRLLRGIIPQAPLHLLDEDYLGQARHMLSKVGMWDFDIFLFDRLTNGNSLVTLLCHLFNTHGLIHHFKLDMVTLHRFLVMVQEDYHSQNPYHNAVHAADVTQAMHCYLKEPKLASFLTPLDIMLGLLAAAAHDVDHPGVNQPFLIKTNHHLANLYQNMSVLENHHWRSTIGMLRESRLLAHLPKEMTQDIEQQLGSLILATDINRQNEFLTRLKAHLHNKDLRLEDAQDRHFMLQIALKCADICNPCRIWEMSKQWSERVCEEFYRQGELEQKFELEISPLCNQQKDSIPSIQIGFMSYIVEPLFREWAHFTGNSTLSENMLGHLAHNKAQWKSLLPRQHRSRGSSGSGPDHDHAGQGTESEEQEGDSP
Chain of Dual specificity calcium/calmodulin-dependent 3',5'-cyclic nucleotide phosphodiesterase 1B (Q01064 whole entry): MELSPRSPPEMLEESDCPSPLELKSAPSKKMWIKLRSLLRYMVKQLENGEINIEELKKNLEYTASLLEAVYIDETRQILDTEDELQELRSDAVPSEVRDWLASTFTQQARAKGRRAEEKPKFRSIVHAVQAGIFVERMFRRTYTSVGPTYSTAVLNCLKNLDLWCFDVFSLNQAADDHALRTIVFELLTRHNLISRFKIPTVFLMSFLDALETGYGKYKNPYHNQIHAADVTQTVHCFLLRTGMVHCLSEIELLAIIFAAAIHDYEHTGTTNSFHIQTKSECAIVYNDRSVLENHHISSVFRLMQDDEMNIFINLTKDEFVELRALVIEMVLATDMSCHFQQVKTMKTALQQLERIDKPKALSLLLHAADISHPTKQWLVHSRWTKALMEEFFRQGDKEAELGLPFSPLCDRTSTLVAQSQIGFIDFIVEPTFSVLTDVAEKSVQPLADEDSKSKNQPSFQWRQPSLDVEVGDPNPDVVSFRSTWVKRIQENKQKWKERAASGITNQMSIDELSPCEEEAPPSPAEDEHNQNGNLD
Chain of Dual 3',5'-cyclic-AMP and -GMP phosphodiesterase 11A (Q9HCR9 whole entry): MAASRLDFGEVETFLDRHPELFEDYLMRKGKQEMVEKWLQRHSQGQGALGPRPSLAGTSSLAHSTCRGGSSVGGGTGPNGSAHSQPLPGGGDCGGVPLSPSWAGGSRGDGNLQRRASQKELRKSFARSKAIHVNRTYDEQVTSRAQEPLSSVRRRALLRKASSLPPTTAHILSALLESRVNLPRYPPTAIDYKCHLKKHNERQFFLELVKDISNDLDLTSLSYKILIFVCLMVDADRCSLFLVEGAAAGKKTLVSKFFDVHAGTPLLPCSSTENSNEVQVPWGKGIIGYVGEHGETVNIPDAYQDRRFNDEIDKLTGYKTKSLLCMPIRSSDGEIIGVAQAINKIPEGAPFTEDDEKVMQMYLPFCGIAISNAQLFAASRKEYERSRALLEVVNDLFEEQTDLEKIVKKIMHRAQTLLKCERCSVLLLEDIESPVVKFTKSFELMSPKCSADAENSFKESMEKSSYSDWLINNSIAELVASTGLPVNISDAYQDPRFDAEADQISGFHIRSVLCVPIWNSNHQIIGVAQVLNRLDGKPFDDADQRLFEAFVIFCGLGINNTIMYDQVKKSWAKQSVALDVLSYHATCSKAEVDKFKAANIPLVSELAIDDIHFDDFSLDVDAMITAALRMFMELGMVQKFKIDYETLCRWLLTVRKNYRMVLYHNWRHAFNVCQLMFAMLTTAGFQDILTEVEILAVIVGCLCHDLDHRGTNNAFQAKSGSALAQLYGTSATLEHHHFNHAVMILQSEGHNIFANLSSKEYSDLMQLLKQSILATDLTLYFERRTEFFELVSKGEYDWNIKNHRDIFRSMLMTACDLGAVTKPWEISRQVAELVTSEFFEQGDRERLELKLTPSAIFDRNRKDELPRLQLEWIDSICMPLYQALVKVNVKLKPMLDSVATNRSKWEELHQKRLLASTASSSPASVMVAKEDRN
Chain of cGMP-inhibited 3',5'-cyclic phosphodiesterase 3B (Q13370 whole entry): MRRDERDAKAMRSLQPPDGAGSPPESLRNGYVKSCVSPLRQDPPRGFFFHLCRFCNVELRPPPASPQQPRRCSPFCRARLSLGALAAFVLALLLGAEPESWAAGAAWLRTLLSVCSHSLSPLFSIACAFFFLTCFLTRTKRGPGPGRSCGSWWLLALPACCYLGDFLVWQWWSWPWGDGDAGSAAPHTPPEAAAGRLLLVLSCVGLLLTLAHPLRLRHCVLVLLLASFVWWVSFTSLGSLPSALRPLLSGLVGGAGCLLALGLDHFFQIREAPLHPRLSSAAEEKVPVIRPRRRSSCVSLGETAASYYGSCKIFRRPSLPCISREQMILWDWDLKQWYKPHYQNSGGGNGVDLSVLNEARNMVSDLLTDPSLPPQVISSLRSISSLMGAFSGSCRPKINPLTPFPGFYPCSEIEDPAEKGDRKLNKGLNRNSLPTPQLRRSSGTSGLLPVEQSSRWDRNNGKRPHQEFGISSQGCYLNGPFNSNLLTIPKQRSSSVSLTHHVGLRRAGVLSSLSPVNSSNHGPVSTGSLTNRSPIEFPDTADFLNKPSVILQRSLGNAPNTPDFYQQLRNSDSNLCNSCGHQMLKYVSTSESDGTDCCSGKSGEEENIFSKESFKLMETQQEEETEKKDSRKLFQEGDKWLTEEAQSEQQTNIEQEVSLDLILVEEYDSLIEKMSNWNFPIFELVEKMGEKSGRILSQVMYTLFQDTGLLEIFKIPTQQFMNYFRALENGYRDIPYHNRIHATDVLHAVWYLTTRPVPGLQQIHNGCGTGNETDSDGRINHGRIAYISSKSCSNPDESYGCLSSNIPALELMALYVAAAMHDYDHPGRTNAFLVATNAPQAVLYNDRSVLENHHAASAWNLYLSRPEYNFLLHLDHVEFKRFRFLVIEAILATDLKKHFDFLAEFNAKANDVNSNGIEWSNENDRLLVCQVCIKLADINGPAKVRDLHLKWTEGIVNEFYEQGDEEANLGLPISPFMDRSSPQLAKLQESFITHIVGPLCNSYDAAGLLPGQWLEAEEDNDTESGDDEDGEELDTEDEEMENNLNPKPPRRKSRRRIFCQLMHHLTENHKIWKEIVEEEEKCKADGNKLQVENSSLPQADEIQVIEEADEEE

`CCCOCCn1c(=O)c(NCCN2CCOCC2)nc2ncc(-c3ccc(OC)nc3)cc21`: the IC50 (commonly the concentration needed to halve the response being measured) in series [1] is 61.8 nM. For the same compound, the half-life (in general, how long it takes for the measured level to halve) in [2] was 1.8 h.
With `CCCOCCn1c(=O)c(NCCO)nc2ncc(-c3ccc(OC)nc3)cc21`, the values for the IC50 in series [3] and in series [1] were 1.17 nM and 114 nM, respectively. The outcome in the series on Rattus norvegicus [4] was Active. Besides, the Ratio IC50 in series [5] was 97.
For the compound `CCCOCCn1c(=O)c(NCCN2CCOCC2)nc2cnc(-c3ccc(OC)nc3)cc21`, the IC50 was 11.3 nM in series [1]; 346 nM in series [7]; above 2000 nM in [8]; above 2000 nM in series [9]; above 2000 nM in series [10]; above 2000 nM in [11]. Besides, the IC50 in [12], in series [13], in series [14], in [15], in series [16] and in [17] was above 2000 nM each time. Moreover, the IC50 in series [18], in series [19], in series [20] and in [21] was above 2000 nM each time. In addition, in the series on Rattus norvegicus [4], the result was Active. The same compound displayed a clearance in series [6] of 33 mL/min/kg. The compound also gave a half-life in series [2] of 0.8 h.
Take `CCCOCCn1c(=O)c(NCC(=O)O)nc2cnc(-c3ccc(OC)nc3)cc21`: the figures for the concentration for half-maximal inhibition (IC50) in series [3] and in series [1] were 1.05 nM and 45.5 nM, respectively. Also, the result in the series with Rattus norvegicus [4] was inactive. Further, the Ratio IC50 in series [5] is 43 and 30.
`CCCOCCn1c(=O)c(N[C@H]2CC[C@H](O)CC2)nc2cnc(-c3ccc(OC)nc3)cc21`: the IC50 in series [3] was 0.05 nM; in series [1], 9.8 nM; in series [7] it was 64.1 nM; in [8], above 2000 nM; in [9], above 2000 nM; in series [10] it was above 2000 nM. In addition, the IC50 in series [11] is above 2000 nM; in [12] it was above 2000 nM; in series [13], above 2000 nM; in series [14], above 2000 nM; in series [15] it was > 2000 nM and 290 nM; in [16], above 2000 nM. The IC50 in series [17] is above 2000 nM; in series [18], above 2000 nM; in [19] it was above 2000 nM; in series [20] it was above 2000 nM; in [21], above 2000 nM; in series [33], 1210 nM. Besides, in the series with Rattus norvegicus [4], the outcome was Active. Further, the clearance worked out at 5.5 mL/min/kg in series [22] and 3.5 mL/min/kg in series [26]. Moreover, the bioavailability (usually dose-corrected exposure relative to a reference, in per cent) stood at 50% in series [23] and 75% in series [29]. For the same compound, the Vd in [24] was 1.4 L/kg; in [25], 3.7 L/kg. Besides, the half-life in series [27] is 4.1 h; in series [28], 17.6 h. Besides, the Vdu in the series filed under Rattus norvegicus [30] worked out at 100 L/kg. This compound also showed a CL free in the series listed under Rattus norvegicus [31] of 400 mL/min/kg. For the same compound, the Papp A→B in [32] was 34 ×10⁻⁶ cm/s.
Take `CCCOCCn1c(=O)c(NC[C@H](C)O)nc2cnc(-c3ccc(OC)nc3)cc21`: the results for the IC50 in series [3] and in [1] were 0.09 nM and 15.3 nM, respectively. The clearance is 13.8 mL/min/kg in series [22] and 17.8 mL/min/kg in [26]. Moreover, the bioavailability was 42% in [23] and 38% in series [29]. The values for the Vd in series [24] and in series [25] were 1 L/kg and 4.3 L/kg, respectively. For the same compound, the half-life was 1.3 h in series [27] and 4.1 h in [28]. Also, the Vdu in the series filed under Rattus norvegicus [30] was found to be 35 L/kg. Besides, the CL free in the series listed under Rattus norvegicus [31] came out at 500 mL/min/kg.
With `CCCOCCn1c(=O)c(NCC(=O)N(C)C)nc2ncc(-c3ccc(OC)nc3)cc21`, the IC50 was determined as 2.59 nM in series [3] and 398 nM in series [1]. Also, the outcome in the series with Rattus norvegicus [4] was Active. Also, the clearance was 33 mL/min/kg in [22] and 9.4 mL/min/kg in series [26]. Moreover, the bioavailability in [23] came to 46%; in [29], 32%. Besides, the Vd in series [24] worked out at 1.1 L/kg; in series [25], 1.2 L/kg. The figures for the half-life in series [27] and in series [28] were 0.6 h and 2.1 h, respectively.
With `CCCOCCn1c(=O)c(NCC(=O)N(C)C)nc2cnc(-c3ccc(OC)nc3)cc21`, the figures for the IC50 in [3] and in series [1] were 0.68 nM and 86.6 nM, respectively. Also, the outcome with Rattus norvegicus [4] was Active. The clearance in [22] is 27 mL/min/kg; in [26], 1.8 mL/min/kg. In addition, the bioavailability in series [23] was 52%; in series [29], 30%. Also, the Vd in [24] was determined as 0.9 L/kg; in [25] it was 0.4 L/kg. The half-life in [27] is 0.6 h; in series [28], 4.3 h. In series [5], the Ratio IC50 was determined as 97.
On to `CCCOCCn1c(=O)c(NCCO)nc2cnc(-c3ccc(OC)nc3)cc21`, for which the IC50 in series [3] turned out to be 0.9 nM; in series [1], 26.3 nM. In addition, in the series with Rattus norvegicus [4], the outcome was inactive. Also, in [5], the Ratio IC50 was determined as 30.
For the compound `CCCOCCn1c(=O)c(NCC(=O)N2CCOCC2)nc2cnc(-c3ccc(OC)nc3)cc21`, the figures for the IC50 in series [3] and in series [1] were 0.15 nM and 16.1 nM, respectively. Moreover, the clearance in series [22] amounted to 9.1 mL/min/kg; in [26] it was 5.3 mL/min/kg. For the same compound, the bioavailability in series [23] stood at 35%; in series [29] it was 32%. Further, the values for the Vd in series [24] and in series [25] were 0.5 L/kg and 1.2 L/kg, respectively. Besides, the half-life in series [27] is 0.8 h; in [28] it was 3.9 h.
In the case of `CCCOCCn1c(=O)c(NCCCO)nc2cnc(-c3ccc(OC)nc3)cc21`, the IC50 in series [3] is 0.26 nM; in series [1] it was 13.8 nM. The compound also returned a clearance in series [22] of 28 mL/min/kg. This compound had a bioavailability in series [23] of 52%. The compound also came in with a Vd in [24] of 1.2 L/kg. This compound also gave a half-life in [27] of 0.7 h. Besides, the Vdu in the series filed under Rattus norvegicus [30] was 31 L/kg. The CL free in the series listed under Rattus norvegicus [31] worked out at 730 mL/min/kg. Moreover, in series [5], the Ratio IC50 was found to be 30.
